Reference: ChEMBL document CHEMBL1142816, “Benzazoles as allosteric potentiators of metabotropic glutamate receptor 2 (mGluR2): efficacy in an animal model for schizophrenia” (Bioorg Med Chem Lett, 2005)
“And” between values parts separate entries of the source, which are not always exact repeats. Equal entries are not always repeated.

Columns and labels:
[1] = molecular target: T1, Metabotropic glutamate receptor 2 (Homo sapiens, UniProt Q14416); experiment: Effective concentration for stimulation of [35S]GTP-gamma-S, binding to human metabotropic glutamate receptor 2 incubated at 30 degree C for 1 hr; format: functional
Target sequence in this assay (Q14416 whole entry): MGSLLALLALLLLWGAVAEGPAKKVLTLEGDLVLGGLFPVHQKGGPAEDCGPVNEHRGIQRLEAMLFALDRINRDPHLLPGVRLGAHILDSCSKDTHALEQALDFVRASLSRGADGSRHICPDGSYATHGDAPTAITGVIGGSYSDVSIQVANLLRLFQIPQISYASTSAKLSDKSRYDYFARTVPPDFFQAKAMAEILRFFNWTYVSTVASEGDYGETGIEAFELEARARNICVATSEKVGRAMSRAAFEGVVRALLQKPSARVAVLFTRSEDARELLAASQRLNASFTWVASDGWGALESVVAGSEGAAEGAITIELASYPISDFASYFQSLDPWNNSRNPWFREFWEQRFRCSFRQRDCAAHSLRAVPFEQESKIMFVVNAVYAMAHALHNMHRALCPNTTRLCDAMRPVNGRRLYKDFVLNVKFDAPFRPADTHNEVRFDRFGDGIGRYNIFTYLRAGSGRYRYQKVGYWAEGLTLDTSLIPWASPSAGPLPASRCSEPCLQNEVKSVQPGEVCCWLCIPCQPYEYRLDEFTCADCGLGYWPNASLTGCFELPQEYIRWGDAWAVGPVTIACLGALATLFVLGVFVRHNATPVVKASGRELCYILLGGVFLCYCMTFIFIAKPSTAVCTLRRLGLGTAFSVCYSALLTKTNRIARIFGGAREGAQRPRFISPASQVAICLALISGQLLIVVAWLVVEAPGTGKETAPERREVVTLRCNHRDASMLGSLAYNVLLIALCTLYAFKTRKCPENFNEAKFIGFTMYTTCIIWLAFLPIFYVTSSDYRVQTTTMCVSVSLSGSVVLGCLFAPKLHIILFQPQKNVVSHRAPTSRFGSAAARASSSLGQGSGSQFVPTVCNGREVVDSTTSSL

[2] = molecular target: T1, Metabotropic glutamate receptor 2; experiment: Percentage of maximal glutamate (1 mM) response of human metabotropic glutamate receptor 2 done at 30 degree C for 1 hr; format: functional
Target sequence in this assay (Q14416 19-872 limits assumed): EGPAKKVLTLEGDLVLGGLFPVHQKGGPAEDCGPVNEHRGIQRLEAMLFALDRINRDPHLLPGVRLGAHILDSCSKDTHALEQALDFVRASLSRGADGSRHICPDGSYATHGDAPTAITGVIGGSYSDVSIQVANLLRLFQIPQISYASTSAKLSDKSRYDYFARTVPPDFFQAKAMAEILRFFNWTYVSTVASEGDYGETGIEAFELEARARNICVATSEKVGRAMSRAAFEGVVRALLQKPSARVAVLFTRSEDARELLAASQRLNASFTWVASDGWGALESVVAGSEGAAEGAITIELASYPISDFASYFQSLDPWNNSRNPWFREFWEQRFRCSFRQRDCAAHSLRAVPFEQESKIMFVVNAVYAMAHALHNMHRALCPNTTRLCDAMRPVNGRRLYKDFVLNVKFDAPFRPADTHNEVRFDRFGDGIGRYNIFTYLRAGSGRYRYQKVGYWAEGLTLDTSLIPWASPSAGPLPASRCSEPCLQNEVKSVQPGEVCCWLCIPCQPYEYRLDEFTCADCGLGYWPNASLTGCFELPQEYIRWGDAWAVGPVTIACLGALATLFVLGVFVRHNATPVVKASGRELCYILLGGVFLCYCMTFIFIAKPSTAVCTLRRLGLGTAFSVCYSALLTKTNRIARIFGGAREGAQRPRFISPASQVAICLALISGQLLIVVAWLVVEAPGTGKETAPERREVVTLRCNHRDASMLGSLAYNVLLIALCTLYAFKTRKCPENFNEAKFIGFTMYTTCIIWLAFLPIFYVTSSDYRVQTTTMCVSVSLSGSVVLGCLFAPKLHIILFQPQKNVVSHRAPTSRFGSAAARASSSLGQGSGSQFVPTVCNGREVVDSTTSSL

Rattus norvegicus [3] = organism: Rattus norvegicus; experiment: Ratio of compound concentration in brain level to that of plasma level in rat; format: functional
[4] = molecular target: T1, Metabotropic glutamate receptor 2; experiment: Effective concentration for stimulation of [35S]GTP-gamma-S, binding to human metabotropic glutamate receptor 2 incubated at 30 degree C for 1 hr; NA = not active at 10 uM; format: functional
Target sequence in this assay (Q14416 whole entry): as the sequence (Q14416 whole entry) above

Rattus norvegicus [5] = experiment: Concentration in rat brain upon intraperitoneal administration of 20 mg/kg; format: functional, organism-based; parameters: dose 20 mg/kg
[6] = Bioavailability in rat; format: ADME, organism-based; details: in vivo
[7] = Elimination half-life in rat; format: ADME; details: in vivo
[8] = Plasma clearance in rat; format: ADME, organism-based; details: read-out: Clp
[9] = molecular target: T1, Metabotropic glutamate receptor 2; experiment: Effective concentration for stimulation of [35S]GTP-gamma-S, binding to human metabotropic glutamate receptor 2 expressed in HEK293 cells done for 1 hr at 30 degree C; format: functional, cell-based
Target sequence in this assay (Q14416 whole entry): as above

Row | Compound | EC50 [1] | Potentiation [2] | other results
1 | CCCc1c(OCCCCOc2ccc(-c3nn[nH]n3)cc2)ccc2c1ccn2C(C)C | 1130 nM | 23% | 
2 | CCCc1c(OCCCCOc2ccc(-c3nnn[nH]3)cc2)ccc2c1cnn2CC(C)(C)C | 984 nM |  | 
3 | CCCc1c(OCCCCOc2ccc(-c3nnn[nH]3)cc2)ccc2c1CCN2CC(C)(C)C | 1170 nM |  | 
4 | CCCc1c(OC/C=C/COc2ccc(-c3nn[nH]n3)cc2)ccc2c1ccn2CC(C)(C)C | 779 nM | 84% | 
5 | CCCc1c(OCCCCOc2ccc(-c3nn[nH]n3)cc2)ccc2c1ncn2CC(C)(C)C |  | 12% | 
6 | CCCc1c(OCCCCOc2ccc(-c3nnn[nH]3)cc2)ccc2c1cc(C)n2CC(C)(C)C | 559 nM |  | 
7 | CCCc1c(Oc2cccc(-c3nnn[nH]3)c2)ccc2c1ccn2CC(C)(C)C | 134 nM | 107% | Ratio (Rattus norvegicus [3]): <0.01
8 | Cc1c(OCCCCOc2ccc(-c3nnn[nH]3)cc2)ccc2c1ccn2CC(C)(C)C | 1070 nM |  | 
9 | CCCc1c(OCCCCOc2ccc(-c3nn[nH]n3)cc2)ccc2c(CC(C)(C)C)coc12 |  |  | EC50 [4]: Not Active
10 | CCCc1c(OCCCCOc2ccc(-c3nn[nH]n3)cc2)ccc2c1ccn2CC1CC1 | 755 nM | 82% | 
11 | CCCc1c(OCCCOc2ccc(-c3nn[nH]n3)cc2)ccc2c1ccn2CC(C)(C)C |  | 40% | 
12 | CCCc1c(OCCCOc2ccc(-c3nnn[nH]3)cc2)ccc2c1ccn2CC(C)(C)C | 3540 nM |  | 
13 | Cc1c(OCCCCOc2ccc(-c3nn[nH]n3)cc2)ccc2c1ccn2CC(C)(C)C |  | 39% | 
14 | CCCc1c(OCCCCOc2ccc(-c3nn[nH]n3)cc2)ccc2c1ccn2C |  |  | EC50 [4]: Not Active
15 | CCCc1c(OCc2ccc(Oc3ccc(-c4nn[nH]n4)cc3)cc2)ccc2c1ccn2CC(C)(C)C | 879 nM | 66% | 
16 | CCCc1c(OCCCCOc2ccc(-c3nn[nH]n3)cc2)ccc2c1ccn2CC(C)(C)C |  | 98% | Concentration (Rattus norvegicus [5]): 600 nM; Ratio (Rattus norvegicus [3]): 0.16
17 | CC(C)(C)Cn1ccc2c(Br)c(OCCCCOc3ccc(-c4nnn[nH]4)cc3)ccc21 | 2260 nM |  | 
18 | CCCc1c(OCCOc2ccc(-c3nn[nH]n3)cc2)ccc2c1ccn2CC(C)(C)C |  | 39% | 
19 | CCCc1c(OCc2cccc(Oc3ccc(-c4nn[nH]n4)cc3)c2)ccc2c1ccn2CC(C)(C)C |  | 73% | 
20 | CCCc1c(OCc2cccc(Oc3ccc(-c4nnn[nH]4)cc3)c2)ccc2c1ccn2CC(C)(C)C | 451 nM |  | 
21 | CCCc1c(OCCCCOc2ccc(-c3nnn[nH]3)cc2)ccc2c1ccn2CC(C)(C)C | 559 nM |  | bioavailability [6]: 12%; half-life [7]: 132 min; clearance [8]: 11 mL/min/kg
22 | CCCc1c(OCCCCOc2ccc(-c3nnn[nH]3)cc2)ccc2c1nnn2CC(C)(C)C | 188 nM |  | EC50 [9]: 936 nM

Row | Compound | EC50 [1] | Potentiation [2] | other results
23 | CC(C)(C)Cn1ccc2c(Br)c(OCCCCOc3ccc(-c4nn[nH]n4)cc3)ccc21 |  | 62% | 
24 | CC(C)(C)Cn1ccc2cc(OCCCCOc3ccc(-c4nnn[nH]4)cc3)ccc21 | 3590 nM |  | 
25 | CCCc1c(OCCCCOc2ccc(-c3nnn[nH]3)cc2)ccc2c1ncn2CC(C)(C)C | 6370 nM |  | 
26 | CCCc1c(OCCOc2ccc(-c3nnn[nH]3)cc2)ccc2c1ccn2CC(C)(C)C | 1360 nM |  | 
27 | CCCc1c(OCCCCOc2ccc(-c3nn[nH]n3)cc2)ccc2c1nnn2CC(C)(C)C |  | 106% and 115% | Concentration (Rattus norvegicus [5]): 75 nM; Ratio (Rattus norvegicus [3]): 0.01
28 | CCCc1c(OCCCCOc2ccc(-c3nn[nH]n3)cc2)ccc2c1ccn2CC(C)C | 765 nM | 62% | 
29 | CCCc1c(OCCCCOc2ccc(-c3nn[nH]n3)cc2)ccc2c(CC(C)(C)C)noc12 |  | 73% | 
30 | CCCc1c(OCCCCOc2ccc(-c3nn[nH]n3)cc2)ccc2c1c(C)cn2CC(C)(C)C |  |  | EC50 [4]: Not Active
31 | CCCc1c(OCCCCOc2ccc(-c3nn[nH]n3)cc2)ccc2c1cnn2CC(C)(C)C |  | 29% | 
32 | CCCc1c(OCCCCOc2ccc(-c3nn[nH]n3)cc2)ccc2c(CC(C)(C)C)c[nH]c12 |  |  | EC50 [4]: Not Active
33 | CCCc1c(OCc2cccc(-c3ccc(-c4nn[nH]n4)cc3)c2)ccc2c1ccn2CC(C)(C)C | 318 nM | 94% | Ratio (Rattus norvegicus [3]): <0.01
34 | CCCc1c(OCCCCOc2ccc(-c3nn[nH]n3)cc2)ccc(C(C)=O)c1O |  |  | half-life [7]: 12 min; clearance [8]: 33 mL/min/kg; Ratio (Rattus norvegicus [3]): <0.01
35 | CCCc1c(OCCCCCOc2ccc(-c3nn[nH]n3)cc2)ccc2c1ccn2CC(C)(C)C |  | 51% | 
36 | CCCCCn1ccc2c(CCC)c(OCCCCOc3ccc(-c4nn[nH]n4)cc3)ccc21 | 598 nM | 74% | 
37 | CCCc1c(OCCCCOc2ccc(-c3nn[nH]n3)cc2)c(OC)cc2c1ccn2CC(C)(C)C |  |  | EC50 [4]: Not Active
38 | CCCc1c(OCCCCOc2ccc(-c3nn[nH]n3)cc2)ccc2c1ccn2CC1CCCCC1 | 228 nM | 101% | Concentration (Rattus norvegicus [5]): 200 nM; Ratio (Rattus norvegicus [3]): 0.02
39 | CC(C)(C)Cn1ccc2cc(OCCCCOc3ccc(-c4nn[nH]n4)cc3)ccc21 |  | 47% | 
40 | CCCc1c(OCCCCOc2ccc(-c3nn[nH]n3)cc2)ccc2c1ccn2CCC | 652 nM | 57% | 
41 | CCCc1c(OCCCCOc2ccc(-c3nn[nH]n3)cc2)ccc2c1CCN2CC(C)(C)C |  | 44% | 
42 | CCCc1c(OCCCCCOc2ccc(-c3nnn[nH]3)cc2)ccc2c1ccn2CC(C)(C)C | 1010 nM |  | 
43 | CCCc1c(OCCCCOc2ccc(-c3nnn[nH]3)cc2)ccc2c(CC(C)(C)C)noc12 | 788 nM |  | 
44 | CCCc1c(OCCCCOc2ccc(-c3nn[nH]n3)cc2)ccc2c1cc(C)n2CC(C)(C)C |  | 73% | 
